Measurements from patent US20100330136A1, “USE OF CATIONIC SURFACTANTS FOR THE PROTECTION AGANST TOOTH EROSION” (priority 2008, published 2010).

Tests used:
[1] = test system: Escherichia coli 0157H7; settings: Gram − bacteria; cited from earlier work
[2] = test system: F. nucleatum; assay: Antimicrobial activity on the biofilm (Zurich Biofilm Model); assay type: cell-based, Fusobacterium nucleatum; settings: 0.5% LAE; 6 exposures of 1 minute in two days, evaluated 16 h after last exposure; control 5.1
Protocol: (§1) The biofilm model is a reliable tool to predict the in vivo efficacy of antimicrobials, and de- and remineralization of enamel exposed to biofilms in vitro. The experiments were performed with the Zurich Biofilm Model. Biofilms are formed either on hydroxyapatite (HA) or bovine enamel disks that have preconditioned in pooled, unstimulated saliva. Biofilms are formed in 24-well cell culture dishes incubated anaerobically at 37° C. The detailed description to the preparation of this model was published by Guggenheim et al., 2001, J. Dent. Res. 80 (1) 363-370. The microbial composition of this biofilm was constituted by five bacterial species and a yeast. More specifically, they are as follows: Streptococcus oralis, Streptococcus sobrinus, Actinomyces naeslundii, Veillonella dispar and Fusobacterium nucleatum and the yeast studied was Candida albicans. The bacteria chosen for incorporation into this biofilm model were five species encountered in supragingival plaque.
(§2) Most of the biofilm models are based on a continuous flow culture system which means that biofilms are subjected to shear or detachment forces. In contrast, the biofilm model used in these experiments was based on a batch culture system that was subjected only intermittently to such forces in the course of dip-washing or gentle swirling. […]
(§3) The results of the following table were expressed as log10 of CFU: […]

[3] = test system: Citrobacter freundii ATCC 22636; settings: Gram − bacteria; cited from earlier work
[4] = test system: V. dispar; assay: Antimicrobial activity on the biofilm (Zurich Biofilm Model); assay type: cell-based, Veillonella dispar; settings: 0.5% LAE; 6 exposures of 1 minute in two days, evaluated 16 h after last exposure; control 8.1
Protocol: as §1, §2, §3

[5] = test system: Rhodotorula rubra CECT 1158; settings: Yeast; cited from earlier work
[6] = test system: Penicillium funiculosum CECT 2914; settings: Fungi; cited from earlier work
[7] = test system: Pseudomonas aeruginosa ATCC 9027; settings: Gram − bacteria; cited from earlier work
[8] = test system: Clostridium perfringens ATCC 77454; settings: Gram + bacteria; cited from earlier work
[9] = test system: Lactobacillus delbrueckii ssp lactis CECT 372; settings: Gram + bacteria; cited from earlier work
[10] = test system: Bordetella bronchiseptica ATCC 4617; settings: Gram − bacteria; cited from earlier work
[11] = test system: Gliocadium virens ATCC 4645; settings: Fungi; cited from earlier work
[12] = Effect of LAE on acids generated from sugar rinses: pH on tooth plaque interfaces; assay type: in vivo, Humans; settings: for intraoral pH after 10% sucrose rinse: 0.16% LAE, humans
Source text: It has been established, that beverages and food containing sugars promote tooth erosion. The American Dental Association (ADA) food and nutrition programs recommend a procedure for evaluating pH in the mouth after ingestion of food and beverages. This is summarized in the FDA guidelines published in Federal Register 43433, vol 61, No. 165, 1996. The procedure involved measuring pH on tooth plaque interfaces after giving the subjects (6 subjects per group) 10% sucrose rinse in the presence or absence of treatment with 0.16% LAE versus placebo solution containing flavor, sweetener, plasticizer (components of chewing gum) to assess their acid neutralizing effects. […] Whereas rinsing with LAE maintains a pH of 5.4±0.3 which is above the danger zone maintained for 3 and 7 days of continuous monitoring. This validates that LAE not only coats the surface of teeth but maintains a healthy pH around teeth to prevent erosion.
Another effect produced by LAE is the pH neutralization. Upon hydrolysis LAE forms arginine which is a natural pH neutralizer in human saliva. The following table reports the intraoral pH with LAE versus a placebo from 0 to 7 days after 10% sucrose rinse: […]

[13] = test system: C. albicans; assay: Antimicrobial activity on the biofilm (Zurich Biofilm Model); assay type: cell-based, Candida albicans; settings: 0.5% LAE; 6 exposures of 1 minute in two days, evaluated 16 h after last exposure; control 5.1
Protocol: as §1, §2, §3

[14] = test system: Bacillus cereus var mycoide ATCC 11778; settings: Gram + bacteria; cited from earlier work
[15] = test system: Leuconostoc mesenteroides CETC 912; settings: Gram + bacteria; cited from earlier work
[16] = test system: Aspergillus niger ATCC14604; settings: Fungi; cited from earlier work
[17] = test system: Aureobasidium pullulans ATCC 9348; settings: Fungi; cited from earlier work
[18] = test system: Alcaligenes faecalis ATCC 8750; settings: Gram − bacteria; cited from earlier work
[19] = test system: Bacillus subtilis ATCC 6633; settings: Gram + bacteria; cited from earlier work
[20] = test system: Klebsiella pneumoniae var pneumoniae CECT 178; settings: Gram − bacteria; cited from earlier work
[21] = test system: Mycobacterium phlei ATCC 41423; settings: listed under Gram − bacteria; cited from earlier work
[22] = test system: Proteus mirabilis CECT 170; settings: Gram − bacteria; cited from earlier work
[23] = test system: S. oralis; assay: Antimicrobial activity on the biofilm (Zurich Biofilm Model); assay type: cell-based, Streptococcus oralis; settings: 0.5% LAE; 6 exposures of 1 minute in two days, evaluated 16 h after last exposure; control 9.0
Protocol: as §1, §2, §3

[24] = test system: Staphylococcus aureus ATCC 6538; settings: Gram + bacteria; cited from earlier work
[25] = test system: Enterobacter aerogenes CECT 689; settings: Gram − bacteria; cited from earlier work
[26] = test system: Serratia marcenses CECT 274; settings: Gram − bacteria; cited from earlier work
[27] = test system: Penicillium chrysogenum CECT 2802; settings: Fungi; cited from earlier work
[28] = test system: Listeria monocytogenes ATCC 7644; settings: Gram + bacteria; cited from earlier work
[29] = test system: microorganisms in biofilm (five bacterial species and a yeast); assay: Re-growth of biofilms after LAE exposure (Zurich Biofilm Model); assay type: cell-based; settings: 1% LAE
Protocol: as §1
Most of the biofilm models are based on a continuous flow culture system which means that biofilms are subjected to shear or detachment forces. In contrast, the biofilm model used in these experiments was based on a batch culture system that was subjected only intermittently to such forces in the course of dip-washing or gentle swirling. Thus, this biofilm model allows for controlled substance exposure times resembling those encountered during mouth rinsing.
The biofilms were exposed to LAE only 6 times during 1 minute in two subsequent days. The evaluation of the LAE effects was studied 16 h after the last exposure.
This experiment compared the re-growth of microorganisms in a control biofilm against a biofilm exposed to LAE. The content of microorganisms in each biofilm was studied along the time. For each point of analysis the growth of microorganisms was studied before and after a dip in a saline solution for control biofilms and in LAE for the other biofilms after each feeding.
The results are expressed as log10 of CFU: […]

[30] = test system: Escherichia coli ATCC 8739; settings: Gram − bacteria; cited from earlier work
[31] = test system: Candida albicans ATCC 10231; settings: Yeast; cited from earlier work
[32] = test system: Arthrobacter oxydans ATCC 8010; settings: Gram + bacteria; cited from earlier work
[33] = test system: Salmonella typhimurium ATCC16028; settings: Gram − bacteria; cited from earlier work
[34] = test system: Micrococcus luteus ATCC 9631; settings: Gram + bacteria; cited from earlier work
[35] = test system: S. sobrinus; assay: Antimicrobial activity on the biofilm (Zurich Biofilm Model); assay type: cell-based, Streptococcus sobrinus; settings: 0.5% LAE; 6 exposures of 1 minute in two days, evaluated 16 h after last exposure; control 8.6
Protocol: as §1, §2, §3

[36] = Tooth coating effect: surface energy from contact angles of sessile drops (Glantz method); assay type: physicochemical; settings: for Surface Energy: enamel without LAE ca 23 dyn/cm
Source text: The tooth coating effect by LAE was validated by the methods described by Glantz PO (1981. “Adhesion in the oral cavity” In Fundamentals and application of surface interactions in the oral cavity (ed. S. A. Leach), pp 49-64. Information Retrieval Ltd. London). The method measures contact angles of sessile drops from liquids with a range of polarities to determine the polar component of the surface energy (gamma p) and dispersive component on teeth coated with LAE. Without LAE the surface energy was 23 dyn/cm. […] In the presence of LAE the surface energy was reduced to a lowest level of 11.5 dyn/cm. This coating provides a shielding effect on teeth against erosion caused by acids from food and beverages.
The surface energy of enamel is ca 23 dyn/cm. This surface energy is reduced by the presence of LAE to the following values: […]

[37] = rats; cited from earlier work
[38] = test system: A. naeslundii; assay: Antimicrobial activity on the biofilm (Zurich Biofilm Model); assay type: cell-based, Actinomyces naeslundii; settings: 0.5% LAE; 6 exposures of 1 minute in two days, evaluated 16 h after last exposure; control 8.3
Protocol: as §1, §2, §3

[39] = test system: Chaetonium globosum ATCC 6205; settings: Fungi; cited from earlier work
[40] = test system: Saccharomyces cerevisiae ATCC 9763; settings: Yeast; cited from earlier work
[41] = test system: Streptococcus mutans ATCC 25175; settings: Gram + bacteria; cited from earlier work
[42] = cited from earlier work

Which results are given for `CCCCCCCCCCCC(=O)N[C@@H](CCCN=C(N)N)C(=O)OCC.Cl` [LAE, ethyl ester of the lauramide of the arginine monohydrochloride]?
M.I.C. [1]: 20 ppm; log10 of CFU in biofilm [2]: 2.1 log10 of CFU; M.I.C. [3]: 64 ppm; log10 of CFU in biofilm [4]: 5.0 log10 of CFU; M.I.C. [5]: 16 ppm; M.I.C. [6]: 16 ppm; M.I.C. [7]: 64 ppm; M.I.C. [8]: 16 ppm; M.I.C. [9]: 16 ppm; M.I.C. [10]: 128 ppm; M.I.C. [11]: 32 ppm; intraoral pH after 10% sucrose rinse ([12]; Day 0, placebo 6): 6; intraoral pH after 10% sucrose rinse ([12]; Day 3, placebo 4.3): 5.3; intraoral pH after 10% sucrose rinse ([12]; Day 7, placebo 4.3): 5.2; pH of the tooth interface after 10% sucrose rinse ([12]; maintained for 3 and 7 days of continuous monitoring, 0.16% LAE rinse, placebo 4.3±0.2, danger zone below pH 5): 5.4±0.3; log10 of CFU in biofilm [13]: 2.1 log10 of CFU; M.I.C. [14]: 32 ppm; M.I.C. [15]: 32 ppm; M.I.C. [16]: 32 ppm; M.I.C. [17]: 16 ppm; M.I.C. [18]: 64 ppm; M.I.C. [19]: 16 ppm; M.I.C. [20]: 32 ppm; M.I.C. [21]: 2 ppm; M.I.C. [22]: 32 ppm; log10 of CFU in biofilm [23]: 6.1 log10 of CFU; M.I.C. [24]: 32 ppm; M.I.C. [25]: 32 ppm; M.I.C. [26]: 32 ppm; M.I.C. [27]: 128 ppm; M.I.C. [28]: 10 ppm; log10 of CFU, biofilm re-growth ([29]; 16.5 h, After 1 dip, control 7.2): 3.5 log10 of CFU; log10 of CFU, biofilm re-growth ([29]; 16.5 h, Before 1 dip, control 7.1): 7.1 log10 of CFU; log10 of CFU, biofilm re-growth ([29]; 24.5 h, After 3 dip, control 7.4): 2.2 log10 of CFU; log10 of CFU, biofilm re-growth ([29]; 24.5 h, Before 3 dip, control 8.1): 1.4 log10 of CFU; log10 of CFU, biofilm re-growth ([29]; 40.5 h, After 4 dip, control 8.1): 1.2 log10 of CFU; log10 of CFU, biofilm re-growth ([29]; 40.5 h, Before 4 dip, control 8.1): 5.9 log10 of CFU; log10 of CFU, biofilm re-growth ([29]; 48.5 h, After 6 dip, control 8.4): 1.2 log10 of CFU; log10 of CFU, biofilm re-growth ([29]; 48.5 h, Before 6 dip, control 8.5): 3.2 log10 of CFU; log10 of CFU, biofilm re-growth ([29]; 64.5 h, Endpoint, control 9.0): 4.3 log10 of CFU; M.I.C. [30]: 32 ppm; M.I.C. [31]: 16 ppm; M.I.C. [32]: 64 ppm; M.I.C. [33]: 32 ppm; M.I.C. [34]: 128 ppm; log10 of CFU in biofilm [35]: 6.1 log10 of CFU; Surface Energy ([36]; [LAE] 0.00001 %): 21.5 dyn/cm; Surface Energy ([36]; [LAE] 0.001 %): 16.5 dyn/cm; Surface Energy ([36]; [LAE] 0.01 %): 11.5 dyn/cm; Surface Energy ([36]; [LAE] 0.1 %): 14 dyn/cm; Surface Energy ([36]; [LAE] 1 %): 12 dyn/cm; Surface energy, lowest level in the presence of LAE ([36]; lowest level, without LAE 23 dyn/cm): 11.5 dyn/cm; absorption and metabolism [37]: fast absorption and metabolisation into naturally-occurring amino acids and the fatty acid lauric acid; log10 of CFU in biofilm [38]: 2.5 log10 of CFU; M.I.C. [39]: 16 ppm; M.I.C. [40]: 32 ppm; M.I.C. [41]: 64 ppm; tolerance and toxicity in practical use ([42]; human beings): well tolerated and to display a very low toxicity to human beings; toxicity ([42]; toxicological studies, animals and humans): completely harmless to animals and humans
